Reference: ChEMBL document CHEMBL1201862, “PubChem BioAssay data set” (2004)
Activity calls are given as the source filed them.

Experiments:
[1] = target: T1, RNA-binding protein pos-1 (Caenorhabditis elegans, UniProt G5EF15); assay: disruptors of C. elegans POS-1 RNA interaction – biochemical, fluorescence polarization, dose response (AID 1964);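 further: purified POS-1 fused to maltose binding protein made in E. coli; potency of compounds blocking POS-1 binding to fluorescent RNA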
T1 sequence (G5EF15 whole entry): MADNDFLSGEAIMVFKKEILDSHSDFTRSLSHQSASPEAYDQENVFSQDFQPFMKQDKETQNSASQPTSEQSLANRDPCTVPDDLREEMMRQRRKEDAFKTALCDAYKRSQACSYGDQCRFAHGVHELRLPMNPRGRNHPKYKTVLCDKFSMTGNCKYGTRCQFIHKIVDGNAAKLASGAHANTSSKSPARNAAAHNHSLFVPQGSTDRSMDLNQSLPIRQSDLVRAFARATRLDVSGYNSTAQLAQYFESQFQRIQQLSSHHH

[2] = target: T2, Neuropeptide Y receptor type 1 (Homo sapiens, UniProt P25929); assay: Fluorescence-based counterscreen for agonists of NPY-Y2: cell-based high-throughput dose response assay for agonists of NPY-Y1.; format: functional
T2 sequence (P25929 whole entry): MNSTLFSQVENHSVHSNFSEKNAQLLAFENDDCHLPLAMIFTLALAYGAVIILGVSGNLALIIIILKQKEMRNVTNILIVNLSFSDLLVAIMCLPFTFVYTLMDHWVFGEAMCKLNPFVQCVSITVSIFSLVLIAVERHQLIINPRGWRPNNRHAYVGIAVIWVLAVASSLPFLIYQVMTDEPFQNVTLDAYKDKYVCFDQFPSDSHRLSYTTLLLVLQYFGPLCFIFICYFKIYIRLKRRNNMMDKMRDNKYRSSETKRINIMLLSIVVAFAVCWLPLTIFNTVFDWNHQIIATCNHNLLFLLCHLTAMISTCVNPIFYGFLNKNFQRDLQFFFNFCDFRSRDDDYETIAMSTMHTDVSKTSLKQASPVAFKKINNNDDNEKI

Protein skinhead-1 = target: T3, Protein skinhead-1 (Caenorhabditis elegans, UniProt P34707); format: functional
T3 sequence (P34707 whole entry): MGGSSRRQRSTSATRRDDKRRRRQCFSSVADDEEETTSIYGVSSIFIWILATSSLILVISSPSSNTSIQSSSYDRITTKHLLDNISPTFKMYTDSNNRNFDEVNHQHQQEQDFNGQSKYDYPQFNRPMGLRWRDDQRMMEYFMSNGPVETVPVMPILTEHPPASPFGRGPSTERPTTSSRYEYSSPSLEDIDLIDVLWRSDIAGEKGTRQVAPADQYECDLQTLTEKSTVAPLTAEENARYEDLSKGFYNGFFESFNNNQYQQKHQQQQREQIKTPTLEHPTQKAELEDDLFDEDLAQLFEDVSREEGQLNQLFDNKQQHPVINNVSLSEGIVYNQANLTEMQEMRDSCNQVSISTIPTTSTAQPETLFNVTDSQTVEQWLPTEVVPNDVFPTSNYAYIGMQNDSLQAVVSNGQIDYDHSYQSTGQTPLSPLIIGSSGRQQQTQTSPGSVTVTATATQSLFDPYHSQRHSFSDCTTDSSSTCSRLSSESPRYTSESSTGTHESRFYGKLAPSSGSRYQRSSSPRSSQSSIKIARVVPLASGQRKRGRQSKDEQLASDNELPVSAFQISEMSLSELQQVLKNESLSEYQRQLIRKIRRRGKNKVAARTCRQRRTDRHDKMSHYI

[3] = cytotoxicity in MITF-independent A375 cells – cell-based, CellTiter-Glo luminescence, dry powder, set 4, counter-screen for MITF inhibitor project, dose response (AID 624364); format: functional; settings: A-375;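 further: A375 melanoma cells are MITF independent so this is a counter screen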
[4] = target: T4, Microphthalmia-associated transcription factor (Homo sapiens, UniProt O75030); assay: reducers of TRPM1 reporter luminescence, concentration series – cell-based, SK-MEL-5, cherry-picked, set 3, MITF inhibitor project, dose response (AID 493073); format: functional;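 further: SK-MEL-5 melanoma cells with luciferase driven by the MITF target TRPM1 promoter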
T4 sequence (O75030 whole entry): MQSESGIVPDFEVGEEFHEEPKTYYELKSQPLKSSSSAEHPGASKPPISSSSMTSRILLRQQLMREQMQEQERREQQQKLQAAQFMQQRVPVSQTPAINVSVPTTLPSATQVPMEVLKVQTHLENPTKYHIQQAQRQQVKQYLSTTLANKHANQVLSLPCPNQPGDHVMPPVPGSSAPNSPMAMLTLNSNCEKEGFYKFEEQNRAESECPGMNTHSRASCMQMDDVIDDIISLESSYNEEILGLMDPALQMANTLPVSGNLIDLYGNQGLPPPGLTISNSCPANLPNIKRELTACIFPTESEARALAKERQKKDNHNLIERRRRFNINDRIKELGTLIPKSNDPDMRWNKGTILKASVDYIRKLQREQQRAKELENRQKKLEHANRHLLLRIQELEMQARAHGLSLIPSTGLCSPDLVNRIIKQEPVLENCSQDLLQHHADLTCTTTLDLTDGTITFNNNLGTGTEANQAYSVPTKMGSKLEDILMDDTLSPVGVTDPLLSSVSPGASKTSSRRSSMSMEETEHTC

[5] = target: T5, Rac GTPase-activating protein 1 (Homo sapiens, UniProt Q9H0H5); assay: blockers of MgcRacGAP-driven Rac1 GTP hydrolysis – biochemical, ADP Hunter fluorescence, primary and confirmatory, confirmation (AID 624330); format: functional
T5 sequence (Q9H0H5 whole entry): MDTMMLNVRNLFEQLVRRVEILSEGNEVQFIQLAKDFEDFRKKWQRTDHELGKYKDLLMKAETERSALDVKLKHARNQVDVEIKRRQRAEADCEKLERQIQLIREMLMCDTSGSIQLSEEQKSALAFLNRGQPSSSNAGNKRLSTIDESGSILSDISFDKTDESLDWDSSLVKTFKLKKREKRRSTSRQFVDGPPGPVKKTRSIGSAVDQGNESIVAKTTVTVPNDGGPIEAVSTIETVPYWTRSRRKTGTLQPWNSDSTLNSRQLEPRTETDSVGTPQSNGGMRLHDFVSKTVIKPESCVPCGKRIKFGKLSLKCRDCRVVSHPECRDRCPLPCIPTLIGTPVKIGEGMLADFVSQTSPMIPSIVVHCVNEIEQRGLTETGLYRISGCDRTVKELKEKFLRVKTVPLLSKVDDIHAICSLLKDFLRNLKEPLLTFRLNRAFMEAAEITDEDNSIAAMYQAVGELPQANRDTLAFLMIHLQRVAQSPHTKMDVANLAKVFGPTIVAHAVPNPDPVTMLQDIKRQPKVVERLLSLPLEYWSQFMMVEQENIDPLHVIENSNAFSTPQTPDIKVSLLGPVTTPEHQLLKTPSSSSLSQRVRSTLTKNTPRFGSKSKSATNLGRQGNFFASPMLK

## O=C(O)CSc1cc(NS(=O)(=O)c2ccc(Br)cc2)c2ccccc2c1O
[1]
  EC50: 20.7 µM (active)

## O=C(CC(O)(C(F)(F)F)C(F)(F)F)Nc1ccc(Cl)c(Cl)c1
[2]
  EC50: 16.5 µM (not active)
Protein skinhead-1
  IC50: 19.6 µM (active)

## O=C(CNc1cccc2ccccc12)N/N=C/c1ccc([N+](=O)[O-])o1
[3]
  AC50: > 70 µM (inactive)
[4]
  AC50: 5.05 µM (active)

## Cc1ccc(NC(=O)C2=C(c3ccccc3)S(=O)(=O)CCS2(=O)=O)cc1
[5]
  IC50: 97.4 µM (active)
